Test: wn = mass fraction of the nth substance listed
Conditions: Liquid; for mass density: Vibrating tube method

NCCO [2-aminoethan-1-ol] + O
viscosity [mPa·s]
Conditions	w1 = 0.1	w1 = 0.1001	w1 = 0.2	w1 = 0.3	w1 = 0.3005	w1 = 0.4	w1 = 0.4001
293.15 K, 93 kPa, Concentric cylinders viscometry	1.409	–	1.982	2.967	–	4.326	–
293.15 K, 100 kPa, Falling or rolling sphere viscometry	–	1.435	1.968	–	2.913	–	4.315
293.15 K, 101 kPa, Falling or rolling sphere viscometry	1.435	–	1.968	2.913	–	4.315	–
293.15 K, 5000 kPa, Falling or rolling sphere viscometry	–	1.435	1.97	–	2.921	–	4.34
293.15 K, 10000 kPa, Falling or rolling sphere viscometry	–	1.434	1.969	–	2.93	–	4.368
293.15 K, 20000 kPa, Falling or rolling sphere viscometry	–	1.43	1.973	–	2.952	–	4.426
293.15 K, 30000 kPa, Falling or rolling sphere viscometry	–	1.43	1.977	–	2.972	–	4.475
293.15 K, 40000 kPa, Falling or rolling sphere viscometry	–	1.429	1.983	–	2.99	–	4.528
293.15 K, 60000 kPa, Falling or rolling sphere viscometry	–	1.431	1.994	–	3.032	–	4.628
293.15 K, 80000 kPa, Falling or rolling sphere viscometry	–	1.434	2.009	–	3.076	–	4.739
293.15 K, 100000 kPa, Falling or rolling sphere viscometry	–	1.432	2.026	–	3.12	–	4.845
293.15 K, 120000 kPa, Falling or rolling sphere viscometry	–	1.443	2.046	–	3.162	–	4.954
313.15 K, 93 kPa, Concentric cylinders viscometry	0.8932	–	1.198	1.675	–	2.284	–
313.15 K, 100 kPa, Falling or rolling sphere viscometry	–	0.891	1.173	–	1.638	–	2.284
313.15 K, 101 kPa, Falling or rolling sphere viscometry	0.891	–	1.173	1.638	–	2.284	–
313.15 K, 5000 kPa, Falling or rolling sphere viscometry	–	0.892	1.178	–	1.642	–	2.306
313.15 K, 10000 kPa, Falling or rolling sphere viscometry	–	0.892	1.182	–	1.649	–	2.319
313.15 K, 20000 kPa, Falling or rolling sphere viscometry	–	0.896	1.19	–	1.668	–	2.352
313.15 K, 30000 kPa, Falling or rolling sphere viscometry	–	0.899	1.197	–	1.686	–	2.384
313.15 K, 40000 kPa, Falling or rolling sphere viscometry	–	0.902	1.205	–	1.702	–	2.416
313.15 K, 60000 kPa, Falling or rolling sphere viscometry	–	0.91	1.219	–	1.735	–	2.479
313.15 K, 80000 kPa, Falling or rolling sphere viscometry	–	0.918	1.232	–	1.77	–	2.544
313.15 K, 100000 kPa, Falling or rolling sphere viscometry	–	0.927	1.249	–	1.804	–	2.609
313.15 K, 120000 kPa, Falling or rolling sphere viscometry	–	0.936	1.263	–	1.846	–	2.675
333.15 K, 93 kPa, Concentric cylinders viscometry	0.6263	–	0.7832	1.084	–	1.405	–
333.15 K, 100 kPa, Falling or rolling sphere viscometry	–	0.615	0.78	–	1.061	–	1.389
333.15 K, 101 kPa, Falling or rolling sphere viscometry	0.615	–	0.78	1.061	–	1.389	–
333.15 K, 5000 kPa, Falling or rolling sphere viscometry	–	0.614	0.788	–	1.067	–	1.401
333.15 K, 10000 kPa, Falling or rolling sphere viscometry	–	0.617	0.792	–	1.075	–	1.41
333.15 K, 20000 kPa, Falling or rolling sphere viscometry	–	0.622	0.799	–	1.089	–	1.434
333.15 K, 30000 kPa, Falling or rolling sphere viscometry	–	0.625	0.807	–	1.103	–	1.453

mass density [kg/m3]
Conditions	w1 = 0.1001	w1 = 0.2	w1 = 0.3005	w1 = 0.4
293.15 K, 100 kPa	1002.5	1006.9	1012.3	1018.1
293.15 K, 500 kPa	1002.7	1007	1012.5	1018.1
293.15 K, 1000 kPa	1002.9	1007.2	1012.7	1018.3
293.15 K, 2000 kPa	1003.3	1007.6	1013	1018.6
293.15 K, 5000 kPa	1004.6	1008.7	1014.1	1019.6
293.15 K, 10000 kPa	1006.7	1010.7	1016	1021.4
293.15 K, 15000 kPa	1008.8	1012.6	1017.7	1023.1
293.15 K, 20000 kPa	1010.9	1014.5	1019.6	1024.8
293.15 K, 30000 kPa	1015.1	1018.4	1023.2	1028.3
293.15 K, 40000 kPa	1019.1	1022.1	1026.6	1031.6
293.15 K, 50000 kPa	1023	1025.8	1030	1034.8
293.15 K, 60000 kPa	1026.9	1029.4	1033.5	1038.1
293.15 K, 70000 kPa	1030.8	1033	1036.9	1041.4
293.15 K, 80000 kPa	1034.5	1036.2	1040	1044.3
293.15 K, 90000 kPa	1038.2	1039.7	1043.3	1047.5
293.15 K, 100000 kPa	1041.8	1043.2	1046.6	1050.4
293.15 K, 110000 kPa	1045.2	1046.4	1049.6	1053.3
293.15 K, 120000 kPa	1048.8	1049.6	1052.6	1056.3
313.15 K, 100 kPa	995.9	999.1	1003.2	1007.5
313.15 K, 500 kPa	996	999.2	1003.4	1007.7
313.15 K, 1000 kPa	996.3	999.4	1003.6	1007.9
313.15 K, 2000 kPa	996.6	999.8	1004	1008.3
313.15 K, 5000 kPa	997.9	1001	1005.1	1009.3
313.15 K, 10000 kPa	1000	1002.9	1007	1011.2
313.15 K, 15000 kPa	1002	1004.8	1008.8	1012.9
313.15 K, 20000 kPa	1004	1006.7	1010.6	1014.7
313.15 K, 30000 kPa	1008.1	1010.5	1014.3	1018.2
313.15 K, 40000 kPa	1012.1	1014.3	1017.9	1021.7
313.15 K, 50000 kPa	1015.9	1017.9	1021.3	1025.1
313.15 K, 60000 kPa	1019.8	1021.5	1024.8	1028.4
313.15 K, 70000 kPa	1023.4	1025	1028.2	1031.7
313.15 K, 80000 kPa	1027	1028.5	1031.4	1034.8
313.15 K, 90000 kPa	1030.6	1031.8	1034.5	1037.8
313.15 K, 100000 kPa	1034.2	1035.1	1037.9	1041.1
313.15 K, 110000 kPa	1037.6	1038.4	1041	1044
313.15 K, 120000 kPa	1041.1	1041.8	1044.1	1047
333.15 K, 100 kPa	986.3	988.8	992	995.3
333.15 K, 500 kPa	986.5	988.9	992.3	995.6
333.15 K, 1000 kPa	986.7	989.1	992.4	995.8
333.15 K, 2000 kPa	987.1	989.5	992.8	996.2
333.15 K, 5000 kPa	988.4	990.7	994	997.3
333.15 K, 10000 kPa	990.5	992.7	996	999.3
333.15 K, 15000 kPa	992.6	994.7	997.9	1001.1
333.15 K, 20000 kPa	994.6	996.6	999.7	1003
333.15 K, 30000 kPa	998.6	1000.5	–	–
